Test results as given in US9382243B2, “Azabenzimidazole tetrahydropyran derivatives” (Merck Sharp & Dohme Corp., priority 2012, dated 2016).
pEC50: −log10 of the molar value.

Tests used:
[1] = system: ob/ob and db/db mice; conditions: following 8 weeks of administration; cited from earlier work
[2] = molecular target: recombinant human AMPK complex 1 (containing α1β1γ1) (Homo sapiens, UniProt Q13131+Q9Y478); assay: AMPKSAMSF in vitro AMPK activation assay, complex 1; assay type: biochemical; conditions: for Emax: 10-point titration, expressed as % maximum AMP activation; for pEC50: inflection point reflecting 50% of the maximum activation, table for human AMPK Complex 1
Experimental: The recombinant human AMPK complex 1 (containing α1β1γ1) or AMPK complex 7 (containing α2β1γ1) was obtained from baculovirus expression system. Recombinant viruses were generated by cotransfection of AMPK/pBacPak9 clones with Baculogold baculovirus DNA (Pharmingen) in spodoptera frugiperda 21 cells according to the manufacturer's instructions. Each round of virus amplification was performed for 5 days in Grace's medium containing 10% serum. Virus that had been subjected to three rounds of amplification was used for all protein production procedures. To express the AMPK complex, sf21 cells were adapted to serum free medium (SF900 II, Invitrogen) by sequential dilution from serum containing stocks into SF900II medium and maintained in shaker flasks at 90 rpm at 27° C. The recombinant AMPK enzyme complex was produced by triple infection, one recombinant virus for each of the subunits, in sf21 cells under serum free conditions. Cells were infected in log phase, 1×10^6 cells/ml, at a multiplicity of infection of ˜5. Cells were harvested by centrifugation at 10,000×g for 15 minutes after 72 hours of infection with viruses. The insect cell pellet from 2 liters of culture was resuspended in 50 ml lysis buffer (20 mM Tris-HCl, 50 mM NaCl, 50 mM NaF, 30 mM Na PPi, 0.25 M sucrose, 10 mM ZnCl2, 2 mM DTT, 0.4 mg/ml digitonin) and subjected to two cycles of freeze-thaw lysis in a dry-ice ethanol bath. Insoluble material was removed by centrifugation at 10,000×g and the supernatant was fractionated with use of polyethylene glycol (PEG). The protein fraction precipitating between 2.5 and 6% PEG was used for further purification using a Blue-Sepharose step (Zhou et al, J. Clin. Invest. 108, 1167-1174, 2001).
The in vitro AMPK activation assay is performed in a volume of 30 μl in a 384-well plate. Enzyme reactions were assembled in the microtiter plate by adding 15 μl of 2× enzyme in assay buffer (20 mM HEPES, pH 7.3, 5 mM MgCl2, 3 mM DTT, 0.01% Brij 35 and CamK Kinase, to activate AMPK) to wells which contained either DMSO or compound. The reaction was initiated with the addition of 15 μl 2× substrate mixture containing 200 μM ATP, and 3.0 μM fluorescently labeled SAMS (5-FAM-HMRSAMSGLHLVKRR-COOH) in assay buffer. After 45-minute incubation at 25° C., the reaction was stopped by the addition of 70 μl stop buffer (100 mM HEPES, pH 7.3, 40 mM EDTA, 0.015% Brij 35). Phosphorylated 5-FAM SAMS product is assessed using a Caliper EZ Reader LabChip microfluidics reader. Product conversion is determined by calculating the peak heights of the substrate and product and reporting the product/(product+substrate) peak ratio. The 10-point titration data were expressed as % maximum AMP activation. The results were plotted using 4 parameter fit and the inflection point reflecting 50% of the maximum activation was reported as the EC50.

recombinant human AMPK complex 1 (containing α1β1γ1), sequence (Q13131 whole entry): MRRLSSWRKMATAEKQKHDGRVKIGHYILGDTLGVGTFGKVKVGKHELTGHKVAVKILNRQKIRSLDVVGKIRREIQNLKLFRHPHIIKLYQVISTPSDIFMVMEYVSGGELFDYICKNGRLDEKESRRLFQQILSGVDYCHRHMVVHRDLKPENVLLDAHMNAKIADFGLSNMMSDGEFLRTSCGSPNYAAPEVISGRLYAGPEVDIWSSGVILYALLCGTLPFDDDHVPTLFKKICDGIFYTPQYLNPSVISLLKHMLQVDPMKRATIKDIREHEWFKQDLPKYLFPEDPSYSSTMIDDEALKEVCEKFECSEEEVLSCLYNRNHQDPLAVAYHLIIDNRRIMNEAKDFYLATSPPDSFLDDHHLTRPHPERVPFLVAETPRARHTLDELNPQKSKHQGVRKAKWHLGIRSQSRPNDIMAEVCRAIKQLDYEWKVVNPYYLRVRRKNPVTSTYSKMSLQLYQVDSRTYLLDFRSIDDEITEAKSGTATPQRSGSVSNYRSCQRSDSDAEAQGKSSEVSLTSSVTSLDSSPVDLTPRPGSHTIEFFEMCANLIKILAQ
recombinant human AMPK complex 1 (containing α1β1γ1), sequence (Q9Y478 whole entry): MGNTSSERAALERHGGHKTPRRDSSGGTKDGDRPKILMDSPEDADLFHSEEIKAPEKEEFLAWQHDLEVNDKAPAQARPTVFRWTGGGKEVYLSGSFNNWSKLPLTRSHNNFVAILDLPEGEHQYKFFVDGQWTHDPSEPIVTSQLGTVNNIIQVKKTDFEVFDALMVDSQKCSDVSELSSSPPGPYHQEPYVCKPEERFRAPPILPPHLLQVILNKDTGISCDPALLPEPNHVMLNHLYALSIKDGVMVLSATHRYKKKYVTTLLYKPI
recombinant human AMPK complex 1 (containing α1β1γ1), sequence (P54619 whole entry partner): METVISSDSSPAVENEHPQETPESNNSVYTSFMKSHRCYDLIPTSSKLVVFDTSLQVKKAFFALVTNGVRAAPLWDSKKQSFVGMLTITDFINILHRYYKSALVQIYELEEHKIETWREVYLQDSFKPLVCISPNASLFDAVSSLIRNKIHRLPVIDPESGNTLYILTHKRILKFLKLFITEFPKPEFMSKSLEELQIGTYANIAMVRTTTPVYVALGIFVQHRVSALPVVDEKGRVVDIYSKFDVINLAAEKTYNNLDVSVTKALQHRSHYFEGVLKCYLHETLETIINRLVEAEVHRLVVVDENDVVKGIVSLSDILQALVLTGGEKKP

| Structure (SMILES) | blood glucose reduction [1] [%] | Emax [2] [%] | pEC50 [2] |
| --- | --- | --- | --- |
| NC(=O)c1ncn([C@@H]2O[C@H](CO)[C@@H](O)[C@H]2O)c1N [AICAR] | 35 |  |  |
| CC(CO)Oc1ccc(-c2nc3nc(O[C@H]4CO[C@H](CO)[C@@H](O)C4)[nH]c3cc2Cl)cc1 (stereo partly drawn) [Example 1, (2R,3S,5R)-5-((6-chloro-5-(4-((1-hydroxypropan-2-yl)oxy)phenyl)-1H-imidazo[4,5-b]pyridin-2-yl)oxy)-2-(hydroxymethyl)tetrahydro-2H-pyran-3-ol] |  | 574 | 6.89 |
| OC[C@H]1OC[C@H](Oc2nc3nc(-c4ccc(N5CC[C@@H](O)C5)cc4)c(Cl)cc3[nH]2)C[C@@H]1O [Example 34] |  | 367 | 7.72 |
| OC[C@H]1OC[C@H](Oc2nc3nc(-c4ccc(N5CC[C@@H](F)C5)cc4)c(Cl)cc3[nH]2)C[C@@H]1O [Example 35] |  | 489 | 7.74 |
| OC[C@H]1OC[C@H](Oc2nc3nc(-c4ccc(N5CC[C@H](F)C5)cc4)c(Cl)cc3[nH]2)C[C@@H]1O [Example 37] |  | 473 | 7.66 |
| CC(C)(O)c1ccc(-c2ccc(-c3nc4nc(O[C@H]5CO[C@H](CO)[C@@H](O)C5)[nH]c4cc3Cl)cc2)cc1 [Example 39, (2R,3 S,5R)-5-((6-chloro-5-(4′-(2-hydroxypropan-2-yl)-[1,1′-biphenyl]-4-yl)-1H-imidazo[4,5-b]pyridin-2-yl)oxy)-2-(hydroxymethyl)tetrahydro-2H-pyran-3-ol] |  | 379 | 8.40 |
| OC[C@H]1OC[C@H](Oc2nc3nc(-c4ccc(-c5ccc(-n6cccn6)cc5)cc4)c(Cl)cc3[nH]2)C[C@@H]1O [Example 45] |  | 417 | 8.52 |
| OC[C@H]1OC[C@H](Oc2nc3nc(-c4ccc(-c5ccc(-c6ccn[nH]6)cc5)cc4)c(Cl)cc3[nH]2)C[C@@H]1O [Example 46] |  | 619 | 7.82 |
| OC[C@H]1OC[C@H](Oc2nc3nc(-c4ccc(-c5ccc(-n6nccn6)cc5)cc4)c(Cl)cc3[nH]2)C[C@@H]1O [Example 47] |  | 590 | 7.60 |
| OC[C@H]1OC[C@H](Oc2nc3nc(-c4ccc(-c5ccc(-n6ccnn6)cc5)cc4)c(Cl)cc3[nH]2)C[C@@H]1O [Example 48] |  | 615 | 8.70 |
| NC(c1ccc(-c2ccc(-c3nc4nc(O[C@H]5CO[C@H](CO)[C@@H](O)C5)[nH]c4cc3Cl)cc2)cc1)C(F)(F)F (stereo partly drawn) [Example 49, (2R,3 S,5R)-5-((5-(4′-(1-amino-2,2,2-trifluoroethyl)-[1,1′-biphenyl]-4-yl)-6-chloro-1H-imidazo[4,5-b]pyridin-2-yl)oxy)-2-(hydroxymethyl)tetrahydro-2H-pyran-3-ol] |  | 464 | 8.05 |
| O=S(=O)(CC1COC1)c1ccc(-c2ccc(-c3nc4nc(O[C@H]5CO[C@H](CO)[C@@H](O)C5)[nH]c4cc3Cl)cc2)cc1 [Example 54] |  | 767 | 8.05 |
| O=S(=O)(c1ccc(-c2ccc(-c3nc4nc(O[C@H]5CO[C@H](CO)[C@@H](O)C5)[nH]c4cc3Cl)cc2)cc1)C1COC1 [Example 55] |  | 752 | 8.10 |
| NS(=O)(=O)c1ccc(-c2ccc(-c3nc4nc(O[C@H]5CO[C@H](CO)[C@@H](O)C5)[nH]c4cc3Cl)cc2)cc1 [Example 56] |  | 392 | 7.96 |
| O=C(c1ccc(-c2ccc(-c3nc4nc(O[C@H]5CO[C@H](CO)[C@@H](O)C5)[nH]c4cc3Cl)cc2)cc1)N1CC[C@@H](O)C1 [Example 61, (4′-(6-chloro-2-(((3R,5 S,6R)-5-hydroxy-6-(hydroxymethyl)tetrahydro-2H-pyran-3-yl)oxy)-1H-imidazo[4,5-b]pyridin-5-yl)-[1,1′-biphenyl]-4-yl)((R)-3-hydroxypyrrolidin-1-yl)methanone] |  | 568 | 7.44 |
| OC[C@H]1OC[C@H](Oc2nc3nc(-c4ccc(-c5ccccc5)cc4)c(Cl)cc3[nH]2)[C@@H](O)[C@@H]1O [Example 62, (2R,3 S,4S,5 S)-5-((5-([1,1′-biphenyl]-4-yl)-6-chloro-1H-imidazo[4,5-b]pyridin-2-yl)oxy)-2-(hydroxymethyl)tetrahydro-2H-pyran-3,4-diol] |  | 545 | 7.77 |
| CC(C)(O)c1ccc(-c2ccc(-c3nc4nc(O[C@H]5CO[C@H](CO)[C@@H](O)[C@@H]5O)[nH]c4cc3Cl)cc2)cc1 [Example 66] |  | 410 | 7.89 |
| CS(=O)(=O)c1ccc(-c2ccc(-c3nc4nc(O[C@H]5CO[C@H](CO)[C@@H](O)[C@@H]5O)[nH]c4cc3Cl)cc2)cc1 [Example 67] |  | 418 | 8.52 |
| O=C(c1ccc(-c2ccc(-c3nc4nc(O[C@H]5CO[C@H](CO)[C@@H](O)[C@@H]5O)[nH]c4cc3Cl)cc2)cc1)N1CCC(O)CC1 [Example 68] |  | 419 | 8.22 |
| CC(C)(O)[C@H]1OC[C@H](Oc2nc3cc(Cl)c(-c4ccc(-c5ccccc5)cc4)nc3[nH]2)C[C@@H]1O [Example 70, (2S,3 S,5R)-5-((5-([1,1′-biphenyl]-4-yl)-6-chloro-1H-imidazo[4,5-b]pyridin-2-yl)oxy)-2-(2-hydroxypropan-2-yl)tetrahydro-2H-pyran-3-ol] |  | 417 | 7.51 |
| CNC(=O)c1ccc(-c2ccc(-c3nc4nc(O[C@H]5CO[C@H](CO)[C@@H](O)C5)[nH]c4cc3Cl)cc2)cc1 [Example 71, 4′-(6-chloro-2-(((3R,5 S,6R)-5-hydroxy-6-(hydroxymethyl)tetrahydro-2H-pyran-3-yl)oxy)-1H-imidazo[4,5-b]pyridin-5-yl)-N-methyl-[1,1′-biphenyl]-4-carboxamide] |  | 443 | 8.22 |
| CC1(O)CCN(C(=O)c2ccc(-c3ccc(-c4nc5nc(O[C@H]6CO[C@H](CO)[C@@H](O)C6)[nH]c5cc4Cl)cc3)cc2)CC1 [Example 72] |  | 504 | 8.10 |
| O=C(c1ccc(-c2ccc(-c3nc4nc(O[C@H]5CO[C@H](CO)[C@@H](O)C5)[nH]c4cc3Cl)cc2)cc1)N1CCC(O)(C(F)(F)F)CC1 [Example 73] |  | 249 | 8.10 |
| COC(=O)Nc1ccc(-c2ccc(-c3nc4[nH]c(O[C@H]5CO[C@H](CO)[C@@H](O)C5)nc4cc3Cl)cc2)cc1 [Example 74, Methyl (4′-(6-chloro-2-(((3R,5S,6R)-5-hydroxy-6-(hydroxymethyl)tetrahydro-2H-pyran-3-yl)oxy)-1H-imidazo[4,5-b]pyridin-5-yl)-[1,1′-biphenyl]-4-yl)carbamate] |  | 460 | 7.60 |
| O=C(Nc1ccc(-c2ccc(-c3nc4nc(O[C@H]5CO[C@H](CO)[C@@H](O)C5)[nH]c4cc3Cl)cc2)cc1)OCC(O)CO (stereo partly shown) [Example 77] |  | 494 | 7.82 |
